{
  "source": "paper PMC6934184",
  "about": "“Selective DNA-PKcs inhibition extends the therapeutic index of localized radiotherapy and chemotherapy” (The Journal of Clinical Investigation, 2019)",
  "molecular_target": "T1, PLK1 (Homo sapiens, UniProt P53350)",
  "T1 construct": "purchased Thermo Fisher Scientific (Life Technologies) SelectScreen",
  "T1 sequence (P53350 whole entry)": "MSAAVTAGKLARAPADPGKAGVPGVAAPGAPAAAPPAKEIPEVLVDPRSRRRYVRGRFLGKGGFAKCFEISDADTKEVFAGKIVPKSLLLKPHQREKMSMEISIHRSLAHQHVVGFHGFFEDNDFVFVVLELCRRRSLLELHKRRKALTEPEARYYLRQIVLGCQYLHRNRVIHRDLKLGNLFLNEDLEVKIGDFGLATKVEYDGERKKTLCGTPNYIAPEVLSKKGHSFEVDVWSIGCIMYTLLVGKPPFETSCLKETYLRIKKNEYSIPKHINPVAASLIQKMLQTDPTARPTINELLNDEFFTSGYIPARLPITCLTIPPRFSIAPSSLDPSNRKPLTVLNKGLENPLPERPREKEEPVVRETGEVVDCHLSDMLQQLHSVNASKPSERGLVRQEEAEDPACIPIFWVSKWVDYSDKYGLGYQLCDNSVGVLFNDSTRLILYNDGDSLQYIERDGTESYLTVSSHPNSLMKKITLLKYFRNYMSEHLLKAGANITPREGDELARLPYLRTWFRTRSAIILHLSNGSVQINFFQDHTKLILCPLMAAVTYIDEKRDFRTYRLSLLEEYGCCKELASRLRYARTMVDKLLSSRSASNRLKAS",
  "assay": "SelectScreen Z'LYTE",
  "type": "biochemical",
  "method_in_brief": "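Percent values come from Thermo SelectScreen profiling of NU5455, combining activity and binding assays. CSF1R was run in Z'LYTE format at Km app ATP, and CAMK1 in Adapta format with ATP listed at 10.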",
  "data": [
    {"compound": "CN(C(=O)CN1CCOCC1)c1ccc2sc3c(-c4cccc5c(=O)cc(N6CC7CCC(C6)O7)oc45)cccc3c2c1", "note": "[NU5455]", "values": [
      {"measurement": "inhibition at 1 µM", "value": 9.2, "unit": "%"}
    ]}
  ]
}
